From patent publication US11325889B2, “Substituted 3-((3-aminophenyl)amino)piperidine-2,6-dione compounds, compositions thereof, and methods of treatment therewith” (Celgene Corporation, priority 2018, dated 2022)
Like-named read-outs stand apart in the source and are kept apart here.

Target: T1, AR protein in VCaP cells (Homo sapiens, UniProt P10275)
T1 construct: endogenous in cells; host or cells: VCaP cells
T1 sequence (P10275 1-920): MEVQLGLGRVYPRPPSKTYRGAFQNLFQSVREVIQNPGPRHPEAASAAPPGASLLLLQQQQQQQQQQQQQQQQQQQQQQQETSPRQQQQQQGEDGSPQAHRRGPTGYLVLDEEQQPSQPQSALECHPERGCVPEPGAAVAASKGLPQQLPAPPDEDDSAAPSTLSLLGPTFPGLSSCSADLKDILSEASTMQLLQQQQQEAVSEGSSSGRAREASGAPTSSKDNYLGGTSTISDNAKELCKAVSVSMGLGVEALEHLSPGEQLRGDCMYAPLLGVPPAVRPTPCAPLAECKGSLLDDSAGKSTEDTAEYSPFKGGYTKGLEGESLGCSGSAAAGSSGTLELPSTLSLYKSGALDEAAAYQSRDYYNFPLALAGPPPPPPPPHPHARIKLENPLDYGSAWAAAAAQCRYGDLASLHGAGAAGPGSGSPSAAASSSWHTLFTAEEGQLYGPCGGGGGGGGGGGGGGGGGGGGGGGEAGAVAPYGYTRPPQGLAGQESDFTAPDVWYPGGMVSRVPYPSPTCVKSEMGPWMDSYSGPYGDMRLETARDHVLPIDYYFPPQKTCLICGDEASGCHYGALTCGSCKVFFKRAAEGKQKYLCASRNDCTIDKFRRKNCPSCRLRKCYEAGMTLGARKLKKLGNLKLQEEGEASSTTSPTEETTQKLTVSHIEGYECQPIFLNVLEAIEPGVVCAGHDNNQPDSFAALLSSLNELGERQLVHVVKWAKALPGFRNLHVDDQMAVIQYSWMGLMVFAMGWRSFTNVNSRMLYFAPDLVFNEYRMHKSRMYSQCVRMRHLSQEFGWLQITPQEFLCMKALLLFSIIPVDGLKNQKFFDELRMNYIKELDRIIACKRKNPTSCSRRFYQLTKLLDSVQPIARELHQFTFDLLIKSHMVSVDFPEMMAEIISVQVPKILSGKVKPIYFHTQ
Test: VCAP AR Degradation Assay (AR ELISA, 24 h)
Format: cell-based
Conditions: for Y (lowest measured AR level normalized to DMSO control): AR degradation efficiency; for DC50: concentration of compound when AR level = 50% of DMSO control
Outline: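 VCaP cells in DMEM with 8% FBS exposed for 24 h at 37° C to a 10-point, 1:3 series (final top concentration […]; 0.1% DMSO control). Lysate AR measured by sandwich ELISA and normalized to DMSO as percent of control. DC50, EC50 and lowest AR level (Y) from four-parameter logistic fit.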

DC50 (read-out: DC50)	Compound	Y (lowest measured AR level normalized to DMSO control)	DC50
100 to 500 nM	CCc1cc(N2C(=S)N(c3cnc(C#N)c(C(F)(F)F)c3)C(=O)C23CCC3)ccc1OCC[C@H]1CCN(CC(=O)Nc2cccc(NC3CCC(=O)NC3=O)c2)C(C)(C)C1 (stereo partly drawn) [Cmpd 55, 2-((S)-4-(2-(4-(7-(6-cyano-5-(trifluoromethyl)pyridin-3-yl)-8-oxo-6-thioxo-5,7-diazaspiro[3.4]octan-5-yl)-2-ethylphenoxy)ethyl)-2,2-dimethylpiperidin-1-yl)-N-(3-(2,6-dioxopiperidin-3-ylamino)phenyl)acetamide]	* (0<Y<=25%)	
100 to 500 nM	CCc1cc(N2C(=S)N(c3cnc(C#N)c(C(F)(F)F)c3)C(=O)C23CCC3)ccc1OCCC1CCN(CC(=O)Nc2cc(NC3CCC(=O)NC3=O)ccc2F)CC1 (stereo not shown) [Cmpd 56, 2-(4-(2-(4-(7-(6-cyano-5-(trifluoromethyl)pyridin-3-yl)-8-oxo-6-thioxo-5,7-diazaspiro[3.4]octan-5-yl)-2-ethylphenoxy)ethyl)piperidin-1-yl)-N-(5-(2,6-dioxopiperidin-3-ylamino)-2-fluorophenyl)acetamide]	* (0<Y<=25%)	
< 100 nM	CC1(C)C(=O)N(c2cnc(C#N)c(C(F)(F)F)c2)C(=S)N1c1ccc(OCCC2CCN(CC(=O)Nc3cccc(NC4CCC(=O)NC4=O)c3)CC2)c(CCF)c1 (stereo not shown) [Cmpd 58, 2-(4-(2-(4-(3-(6-cyano-5-(trifluoromethyl)pyridin-3-yl)-5,5-dimethyl-4-pxo-2-thioxoimidazolidin-1-yl)-2-(2-fluoroethyl)phenoxy)ethyl)piperidin-1-yl)-N-(3-(2,6-dioxopiperidin-3-ylamino)phenyl)acetamide]	* (0<Y<=25%)	
< 100 nM	CCc1cc(N2C(=S)N(c3cnc(C#N)c(C(F)(F)F)c3)C(=O)C2(C)C)ccc1OCCC1(C)CCN(CC(=O)Nc2cccc(NC3CCC(=O)NC3=O)c2)CC1 (stereo not shown) [Cmpd 61, 2-(4-(2-(4-(3-(6-cyano-5-(trifluoromethyl)pyridin-3-yl)-5,5-dimethyl-4-oxo-2-thioxoimidazolidin-1-yl)-2-ethylphenoxy)ethyl)-4-methylpiperidin-1-yl)-N-(3-(2,6-dioxopiperidin-3-ylamino)phenyl)acetamide]	* (0<Y<=25%)	
	CCc1cc(N2C(=S)N(c3cnc(C#N)c(C(F)(F)F)c3)C(=O)C2(C)C)ccc1OCC[C@@H]1C[C@H]2CC[C@@H](C1)N2CC(=O)Nc1cc(Cl)cc(NC2CCC(=O)NC2=O)c1 (stereo partly drawn) [Cmpd 62, N-(3-chloro-5-(2,6-dioxopiperidin-3-ylamino)phenyl)-2-((1R,3s,5S)-3-(2-(4-(3-(6-cyano-5-(trifluoromethyl)pyridin-3-yl)-5,5-dimethyl-4-oxo-2-thioxoimidazolidin-1-yl)-2-ethylphenoxy)ethyl)-8-azabicyclo[3.2.1]octan-8-yl)acetamide]	* (0<Y<=25%)	< 100 nM
	CCc1cc(N2C(=S)N(c3cnc(C#N)c(C(F)(F)F)c3)C(=O)C2(C)C)ccc1OCC[C@H]1C[C@H]2CC[C@@H](C1)N2CC(=O)Nc1cc(Cl)cc(NC2CCC(=O)NC2=O)c1 (stereo partly drawn) [Cmpd 63, N-(3-chloro-5-(2,6-dioxopiperidin-3-ylamino)phenyl)-2-((1R,3r,5S)-3-(2-(4-(3-(6-cyano-5-(trifluoromethyl)pyridin-3-yl)-5,5-dimethyl-4-oxo-2-thioxoimidazolidin-1-yl)-2-ethylphenoxy)ethyl)-8-azabicyclo[3.2.1]octan-8-yl)acetamide]	** (25%<Y<=35%)	< 100 nM
100 to 500 nM	CCc1cc(N2C(=S)N(c3cnc(C#N)c(C(F)(F)F)c3)C(=O)C2(C)C)ccc1OCCC1(C)CCN(CC(=O)Nc2cc(Cl)cc(NC3CCC(=O)NC3=O)c2)CC1 (stereo not shown) [Cmpd 64, N-(3-chloro-5-(2,6-dioxopiperidin-3-ylamino)phenyl)-2-(4-(2-(4-(3-(6-cyano-5-(trifluoromethyl)pyridin-3-yl)-5,5-dimethyl-4-oxo-2-thioxoimidazolidin-1-yl)-2-ethylphenoxy)ethyl)-4-methylpiperidin-1-yl)acetamide]	* (0<Y<=25%)	
	CCc1cc(N2C(=S)N(c3cnc(C#N)c(C(F)(F)F)c3)C(=O)C2(C)C)ccc1OCC[C@H]1C[C@H]2CC[C@@H](C1)N2CC(=O)Nc1cccc(NC2CCC(=O)NC2=O)c1 (stereo partly drawn) [Cmpd 65, 2-((1R,3r,5S)-3-(2-(4-(3-(6-cyano-5-(trifluoromethyl)pyridin-3-yl)-5,5-dimethyl-4-oxo-2-thioxoimidazolidin-1-yl)-2-ethylphenoxy)ethyl)-8-azabicyclo[3.2.1]octan-8-yl)-N-(3-(2,6-dioxopiperidin-3-ylamino)phenyl)acetamide]	* (0<Y<=25%)	< 100 nM
	CCc1cc(N2C(=S)N(c3cnc(C#N)c(C(F)(F)F)c3)C(=O)C2(C)C)ccc1OCC[C@@H]1C[C@H]2CC[C@@H](C1)N2CC(=O)Nc1cccc(NC2CCC(=O)NC2=O)c1 (stereo partly drawn) [Cmpd 66, 2-((1R,3s,5S)-3-(2-(4-(3-(6-cyano-5-(trifluoromethyl)pyridin-3-yl)-5,5-dimethyl-4-oxo-2-thioxoimidazolidin-1-yl)-2-ethylphenoxy)ethyl)-8-azabicyclo[3.2.1]octan-8-yl)-N-(3-(2,6-dioxopiperidin-3-ylamino)phenyl)acetamide]	* (0<Y<=25%)	< 100 nM
	CCc1cc(N2C(=S)N(c3cnc(C#N)c(C(F)(F)F)c3)C(=O)C23CCC3)ccc1OCC[C@@H]1C[C@H]2CC[C@@H](C1)N2CC(=O)Nc1cccc(NC2CCC(=O)NC2=O)c1 (stereo partly drawn) [Cmpd 68, 2-((1R,3s,5S)-3-(2-(4-(7-(6-cyano-5-(trifluoromethyl)pyridin-3-yl)-8-oxo-6-thioxo-5,7-diazaspiro[3.4]octan-5-yl)-2-ethylphenoxy)ethyl)-8-azabicyclo[3.2.1]octan-8-yl)-N-(3-(2,6-dioxopiperidin-3-ylamino)phenyl)acetamide]	* (0<Y<=25%)	< 100 nM
	CCc1cc(N2C(=S)N(c3cnc(C#N)c(C(F)(F)F)c3)C(=O)C23CCC3)ccc1OCCC1C[C@H]2CC[C@@H](C1)N2CC(=O)Nc1cc(Cl)cc(NC2CCC(=O)NC2=O)c1 (stereo partly drawn) [Cmpd 69, N-(3-chloro-5-(2,6-dioxopiperidin-3-ylamino)phenyl)-2-((1R,5S)-3-(2-(4-(7-(6-cyano-5-(trifluoromethyl)pyridin-3-yl)-8-oxo-6-thioxo-5,7-diazaspiro[3.4]octan-5-yl)-2-ethylphenoxy)ethyl)-8-azabicyclo[3.2.1]octan-8-yl)acetamide]	** (25%<Y<=35%)	100 to 500 nM

Compound	DC50 (read-out: DC50)	Y (lowest measured AR level normalized to DMSO control)	DC50
CCc1cc(N2C(=S)N(c3ccc(C#N)c(C(F)(F)F)c3)C(=O)C23CCC3)ccc1OCCC1CCN(CC(=O)Nc2cc(NC3CCC(=O)NC3=O)ccc2F)CC1 (stereo not shown) [Cmpd 57, 2-(4-(2-(4-(7-(4-cyano-3-(trifluoromethyl)phenyl)-8-oxo-6-thioxo-5,7-diazaspiro[3.4]octan-5-yl)-2-ethylphenoxy)ethyl)piperidin-1-yl)-N-(5-(2,6-dioxopiperidin-3-ylamino)-2-fluorophenyl)acetamide]	100 to 500 nM	* (0<Y<=25%)	
CCc1cc(N2C(=S)N(c3ccc(C#N)c(C(F)(F)F)c3)C(=O)C23CCC3)ccc1OCCC1CCN([C@@H](C)C(=O)Nc2cccc(NC3CCC(=O)NC3=O)c2)CC1 (stereo partly drawn) [Cmpd 59, (2S)-2-(4-(2-(4-(7-(4-cyano-3-(trifluoromethyl)phenyl)-8-oxo-6-thioxo-5,7-diazaspiro[3.4]octan-5-yl)-2-ethylphenoxy)ethyl)piperidin-1-yl)-N-(3-(2,6-dioxopiperidin-3-ylamino)phenyl)propanamide]	100 to 500 nM	** (25%<Y<=35%)	
CCc1cc(N2C(=S)N(c3ccc(C#N)c(C(F)(F)F)c3)C(=O)C23CCC3)ccc1OCCC1CCN([C@H](C)C(=O)Nc2cccc(NC3CCC(=O)NC3=O)c2)CC1 (stereo partly drawn) [Cmpd 60, (2R)-2-(4-(2-(4-(7-(4-cyano-3-(trifluoromethyl)phenyl)-8-oxo-6-thioxo-5,7-diazaspiro[3.4]octan-5-yl)-2-ethylphenoxy)ethyl)piperidin-1-yl)-N-(3-(2,6-dioxopiperidin-3-ylamino)phenyl)propanamide]	100 to 500 nM	** (25%<Y<=35%)	
